Measurements: ChEMBL document CHEMBL5126559, “Insights into the structure-activity relationship of a type III secretion system inhibitor, aurodox” (Bioorg Med Chem Lett, 2022)
Values after ≈ are worked out from the molar mass of the structure shown.

How the values were obtained:
[1] = Inhibition of bacterial type III secretion system in enteropathogenic Escherichia coli
Escherichia coli = assay: Antibacterial activity against enteropathogenic Escherichia coli; type: functional, organism-based

IC50 [1]	IC50 (Escherichia coli)	SMILES
1.42 µg/mL (≈ 1.75 µM)	32.8 µg/mL (≈ 40.4 µM)	C/C=C\C=C\[C@@H]1O[C@](O)([C@H](CC)C(=O)NC/C=C/C=C(\C)[C@@H](OC)[C@@H](C)[C@@H]2O[C@H](/C=C/C=C/C=C(\C)C(=O)c3c(O)ccn(C)c3=O)[C@H](O)[C@@H]2O)[C@H](O)[C@H](O)C1(C)C
> 100 µg/mL	> 100 µg/mL	CO[C@H](/C(C)=C/C=C/CN)[C@@H](C)[C@@H]1O[C@H](/C=C/C=C/C=C(\C)C(=O)c2c(O)ccn(C)c2=O)[C@H](O)[C@@H]1O
> 100 µg/mL	> 100 µg/mL	C/C=C\C=C\[C@@H]1O[C@](O)([C@H](CC)C(=O)NC/C=C/C=C(\C)[C@@H](OC)[C@@H](C)[C@@H]2O[C@H](/C=C/C=C/C=C(\C)C(=O)c3c(O)ccn(C)c3=O)[C@@H]3OC(=O)O[C@@H]32)[C@@H]2OC(=O)O[C@@H]2C1(C)C
4.82 µg/mL (≈ 5.84 µM)	> 100 µg/mL	C/C=C\C=C\[C@@H]1O[C@](O)([C@H](CC)C(=O)NC/C=C/C=C(\C)[C@@H](OC)[C@@H](C)[C@@H]2O[C@H](/C=C/C=C/C=C(\C)C(=O)c3c(OC)ccn(C)c3=O)[C@H](O)[C@@H]2O)[C@H](O)[C@H](O)C1(C)C
2.29 µg/mL	53.9 µg/mL	C/C=C\C=C\[C@@H]1O[C@](O)([C@H](CC)C(=O)NC/C=C/C=C(\C)[C@@H](OC)[C@@H](C)[C@@H]2O[C@H](/C=C/C=C/C=C(\C)C(=O)c3c([O-])ccn(C)c3=O)[C@H](O)[C@@H]2O)[C@H](O)[C@H](O)C1(C)C.[Na+]
> 100 µg/mL	> 100 µg/mL	C/C=C\C=C\[C@@H]1O[C@]2(O)C(CC)C(=O)O[C@@H]2[C@H](O)C1(C)C (some centres not stated)
1.75 µg/mL	30.6 µg/mL	C/C=C\C=C\[C@@H]1O[C@](O)([C@H](CC)C(=O)NC/C=C/C=C(\C)[C@@H](OC)[C@@H](C)[C@@H]2O[C@H](/C=C/C=C/C=C(\C)C(=O)c3c(O)ccn(C)c3=O)[C@H](O)[C@@H]2O)[C@H](O)[C@H](O)C1(C)C.[MgH2]
1.45 µg/mL (≈ 1.58 µM)	> 100 µg/mL	C/C=C\C=C\[C@@H]1O[C@](O)([C@H](CC)C(=O)NC/C=C/C=C(\C)[C@@H](OC)[C@@H](C)[C@@H]2O[C@H](/C=C/C=C/C=C(\C)C(=O)c3c(OC(=O)c4ccccc4)ccn(C)c3=O)[C@H](O)[C@@H]2O)[C@H](O)[C@H](O)C1(C)C
19 µg/mL (≈ 19.7 µM)	> 100 µg/mL	C/C=C\C=C\[C@@H]1O[C@](O)([C@H](CC)C(=O)NC/C=C/C=C(\C)[C@@H](OC)[C@@H](C)[C@@H]2O[C@H](/C=C/C=C/C=C(\C)C(=O)c3c(OS(=O)(=O)c4ccc(C)cc4)ccn(C)c3=O)[C@H](O)[C@@H]2O)[C@H](O)[C@H](O)C1(C)C
> 100 µg/mL	> 100 µg/mL	C/C=C\C=C\[C@@H]1O[C@](O)([C@H](CC)C(=O)NC/C=C/C=C(\C)[C@@H](OC)[C@@H](C)[C@@H]2O[C@H](/C=C/C=C/C=C(\C)C(=O)c3c(O)ccn(C)c3=O)[C@@H]3OC(=O)O[C@@H]32)[C@H](O)[C@H](O)C1(C)C
1.19 µg/mL (≈ 1.37 µM)	31.1 µg/mL (≈ 35.9 µM)	C/C=C\C=C\[C@@H]1O[C@](O)([C@H](CC)C(=O)NC/C=C/C=C(\C)[C@@H](OC)[C@@H](C)[C@@H]2O[C@H](/C=C/C=C/C=C(\C)C(=O)c3c(OC(=O)CC)ccn(C)c3=O)[C@H](O)[C@@H]2O)[C@H](O)[C@H](O)C1(C)C
4.16 µg/mL (≈ 4.89 µM)	> 100 µg/mL	C=CCOc1ccn(C)c(=O)c1C(=O)/C(C)=C/C=C/C=C/[C@H]1O[C@@H]([C@H](C)[C@H](OC)/C(C)=C/C=C/CNC(=O)[C@@H](CC)[C@@]2(O)O[C@@H](/C=C/C=C\C)C(C)(C)[C@@H](O)[C@H]2O)[C@@H](O)[C@H]1O
1.43 µg/mL (≈ 1.68 µM)	36.1 µg/mL (≈ 42.3 µM)	C/C=C\C=C\[C@@H]1O[C@](O)([C@H](CC)C(=O)NC/C=C/C=C(\C)[C@@H](OC)[C@@H](C)[C@@H]2O[C@H](/C=C/C=C/C=C(\C)C(=O)c3c(OC(C)=O)ccn(C)c3=O)[C@H](O)[C@@H]2O)[C@H](O)[C@H](O)C1(C)C
4.65 µg/mL (≈ 5.23 µM)	> 100 µg/mL	C/C=C\C=C\[C@@H]1O[C@](O)([C@H](CC)C(=O)NC/C=C/C=C(\C)[C@@H](OC)[C@@H](C)[C@@H]2O[C@H](/C=C/C=C/C=C(\C)C(=O)c3c(OS(C)(=O)=O)ccn(C)c3=O)[C@H](O)[C@@H]2O)[C@H](O)[C@H](O)C1(C)C
2.52 µg/mL	49.5 µg/mL	C/C=C\C=C\[C@@H]1O[C@](O)([C@H](CC)C(=O)NC/C=C/C=C(\C)[C@@H](OC)[C@@H](C)[C@@H]2O[C@H](/C=C/C=C/C=C(\C)C(=O)c3c([O-])ccn(C)c3=O)[C@H](O)[C@@H]2O)[C@H](O)[C@H](O)C1(C)C.[Li+]
10.4 µg/mL (≈ 11.8 µM)	> 100 µg/mL	C/C=C\C=C\[C@@H]1O[C@](O)([C@H](CC)C(=O)NC/C=C/C=C(\C)[C@@H](OC)[C@@H](C)[C@@H]2O[C@H](/C=C/C=C/C=C(\C)C(=O)c3c(OCOC(N)=O)ccn(C)c3=O)[C@H](O)[C@@H]2O)[C@H](O)[C@H](O)C1(C)C
